Results reported in article PMC11521309, “A novel 4-aminoquinoline chemotype with multistage antimalarial activity and lack of cross-resistance with PfCRT and PfMDR1 mutants” (PLOS Pathogens, 2024).
“And” between values parts separate entries of the source, which are not always exact repeats. Identical values can stand only once. Like-named read-outs stand apart in the source and are kept apart here.

What was measured:
[1] = tested on: P. falciparum Dd2^F145I; parameters: key to Phenotype, Dd2^F145I: S: sensitive; R: resistant; conditions: cited from earlier work
[2] = tested on: P. berghei ookinete formation; assay: In vitro inhibition of ookinete formation (nLuc conversion assay), 24 h; format: cell-based, Plasmodium berghei; conditions: Plasmodium berghei; for activity at 10 µM: read-out: % Inhibition of ookinete conversion, 10 uM; for activity at 25 µM: read-out: % Inhibition of ookinete conversion, 25 uM; for activity at 100 µM: read-out: % Inhibition of ookinete conversion, 100 uM
Description: To measure the inhibition of gamete conversion into ookinetes, a mutant luciferase-expressing P. berghei line (nLuc) was intraperitoneally injected into BALB/c mice. After 3–4 days, gametocyte-carrying blood samples were collected. In vitro compound testing was carried out by exposing 4 μL of infected blood mixed with 80 μL of culture medium (RPMI-1640 supplemented with 25 mM HEPES, 50 mg/L hypoxanthine, and 1% penicillin/streptomycin/neomycin at pH 8.3) to a range of drug concentrations for 24 hours at 21°C. Following the incubation, 20 μL of nLuc substrate (Nano-Glo Luciferase Assay System, Promega) was added to each well, and luminescence was measured in a luminometer. Increased light emission correlated with nLuc production and subsequent luciferase activity due to in vitro fertilization and ookinete conversion, as luciferase expression in this parasite line is regulated by the CTRP promoter that is ookinete-specific. Conversion inhibition was calculated as the percentage of luciferase activity of drug-exposed wells relative to untreated ones, from which IC50 values were interpolated.

[3] = tested on: Hz formation in ABS P. falciparum 3D7 parasites; assay: Cellular heme fractionation assay; format: cell-based, Plasmodium falciparum
Description: A heme fractionation assay was used to measure the inhibition of Hz formation in cultured ABS P. falciparum 3D7 parasites as previously described. […] Late trophozoites were harvested after 32 hours of incubation by lysing RBCs with 0.05% saponin followed by multiple washes with 1 × PBS (pH 7.5) to remove any residual traces of hemoglobin. The parasite pellet was resuspended in PBS and the total number of trophozoites isolated was quantified using flow cytometry. Contents of the trophozoite pellet were released by hypotonic lysis and sonication. After centrifugation, treatments with HEPES buffer (pH 7.4), sodium dodecyl sulfate, pyridine, and NaOH, allowed us to separate the fractions corresponding to the different heme species of interest. A microplate reader was employed to measure the UV-visible spectrum of each heme fraction as a Fe(III)heme-pyridine complex. Fractions of undigested hemoglobin, “free” heme, and Hz were quantified using a heme standard curve based on the mass of each heme-Fe species per mature trophozoite (fg/cell), obtained by dividing the total amount of each heme species by the corresponding number of parasites in that fraction as determined by flow cytometry. Statistical comparisons and analyses for trends employed Students’ t-tests (GraphPad Prism version 9).

[4] = single replicates, Control = 100
[5] = 0.5x IC50, 32 h, single replicates
[6] = 0.5–3.0 × IC50 vs untreated control
[7] = 1x IC50, 32 h, single replicates
[8] = 2x IC50, 32 h, single replicates
[9] = 2.5x IC50, 32 h, single replicates
[10] = 3x IC50, 32 h, single replicates

CCN(CC)CCCC(C)Nc1ccnc2cc(Cl)ccc12 (centres unmarked) [CQ, chloroquine]
IC50 ([1]; Dd2F145I, mean ± SEM, ref 1 (Ross et al., 2018)): 19.3 ± 1.3 nM | Phenotype, Dd2^F145I ([1]; a: sensitized to CQ compared to the parental line but not fully sensitive, ref [19],[20],[51]): S ^a | activity at 10 µM ([2]; Mean, Control mean 96.63): 43.2% | activity at 10 µM [2, 4]: 38.1% | activity at 25 µM ([2]; Mean, Control mean 96.63): 14.4% | activity at 25 µM [2, 4]: 12.7% | activity at 50 µM ([2]; read-out: % Inhibition of ookinete conversion, 50 uM, Mean, Control mean 96.63): 0.49% | activity at 100 µM ([2]; Mean, Control mean 96.63): 0.22% | activity at 100 µM [2, 4]: 0.2% | inhibition at 10 µM ([2]; read-out: inhibition of zygote conversion into ookinetes): 56.7% | %Hb ([3]; 0.5x IC50, 32 h, Mean): 3.19% | %Hemozoin ([3]; 0.5x IC50, 32 h, Mean): 88.03% | Hb Fe (fg/troph) ([3]; 0.5x IC50, 32 h, Mean): 1.79 fg/troph | Heme Fe (fg/troph) ([3]; 0.5x IC50, 32 h, Mean): 4.89 fg/troph | Hemozoin Fe (fg/troph) ([3]; 0.5x IC50, 32 h, Mean): 48.61 fg/troph | Total Fe (fg/troph) ([3]; 0.5x IC50, 32 h, Mean): 57.03 fg/troph | %Hb [3, 5]: 3.1577% and 3.5151% and 3.0401% and 3.0419% | %Heme [3, 5]: 10.1984% and 8.3472% and 8.0733% and 8.4973% | %Hemozoin [3, 5]: 86.6439% and 88.1377% and 88.8867% and 88.4608% | Hb Fe (fg/troph) [3, 5]: 1.6883 fg/troph and 1.9552 fg/troph and 1.7265 fg/troph and 1.8935 fg/troph | Heme Fe (fg/troph) [3, 5]: 5.4527 fg/troph and 4.6429 fg/troph and 4.5850 fg/troph and 5.2894 fg/troph | Hemozoin Fe (fg/troph) [3, 5]: 46.3251 fg/troph and 49.0239 fg/troph and 50.4811 fg/troph and 55.0658 fg/troph | Total Fe (fg/troph) [3, 5]: 53.47 fg/troph and 55.62 fg/troph and 56.79 fg/troph and 62.25 fg/troph | effect on Hz levels [3, 6]: Hz levels only decreased significantly from 2 × IC50 | effect on undigested Hb [3, 6]: significant at 2.5 × IC50 of CQ only | effect on “free” heme [3, 6]: significant increase in “free” heme starting at 0.5 × IC50 | %Hb ([3]; 1x IC50, 32 h, Mean): 3.14% | %Hemozoin ([3]; 1x IC50, 32 h, Mean): 88.13% | Hb Fe (fg/troph) ([3]; 1x IC50, 32 h, Mean): 1.74 fg/troph | Heme Fe (fg/troph) ([3]; 1x IC50, 32 h, Mean): 5.05 fg/troph | Hemozoin Fe (fg/troph) ([3]; 1x IC50, 32 h, Mean): 48.59 fg/troph | Total Fe (fg/troph) ([3]; 1x IC50, 32 h, Mean): 56.08 fg/troph | %Hb [3, 7]: 2.4393% and 3.8543% and 3.1547% and 3.1175% | %Heme [3, 7]: 10.2450% and 7.2686% and 7.4306% | %Hemozoin [3, 7]: 87.3158% and 86.1923% and 89.5767% and 89.4519% | Hb Fe (fg/troph) [3, 7]: 1.3251 fg/troph and 2.0733 fg/troph and 1.8303 fg/troph and 1.8137 fg/troph | Heme Fe (fg/troph) [3, 7]: 5.5654 fg/troph and 5.3541 fg/troph and 4.2171 fg/troph and 4.3229 fg/troph | Hemozoin Fe (fg/troph) [3, 7]: 47.4331 fg/troph and 46.3642 fg/troph and 51.9709 fg/troph and 52.0405 fg/troph | Total Fe (fg/troph) [3, 7]: 54.32 fg/troph and 53.79 fg/troph and 58.02 fg/troph and 58.18 fg/troph | %Hb ([3]; 2x IC50, 32 h, Mean): 3.51% | %Hemozoin ([3]; 2x IC50, 32 h, Mean): 87.00% | Hb Fe (fg/troph) ([3]; 2x IC50, 32 h, Mean): 1.98 fg/troph | Heme Fe (fg/troph) ([3]; 2x IC50, 32 h, Mean): 5.58 fg/troph | Hemozoin Fe (fg/troph) ([3]; 2x IC50, 32 h, Mean): 48.43 fg/troph | Total Fe (fg/troph) ([3]; 2x IC50, 32 h, Mean): 56.59 fg/troph | %Hb [3, 8]: 3.5841% and 3.0885% and 3.9396% and 3.4358% | %Heme [3, 8]: 10.5037% and 10.6360% and 8.0922% | %Hemozoin [3, 8]: 85.9123% and 86.2755% and 87.3313% and 88.4720% | Hb Fe (fg/troph) [3, 8]: 2.0351 fg/troph and 1.7333 fg/troph and 2.1697 fg/troph and 2.0058 fg/troph | Heme Fe (fg/troph) [3, 8]: 5.9641 fg/troph and 5.9691 fg/troph and 4.8074 fg/troph and 4.7243 fg/troph | Hemozoin Fe (fg/troph) [3, 8]: 48.7818 fg/troph and 48.4187 fg/troph and 48.0959 fg/troph and 51.6502 fg/troph | Total Fe (fg/troph) [3, 8]: 56.78 fg/troph and 56.12 fg/troph and 55.07 fg/troph and 58.38 fg/troph | %Hb ([3]; 2.5x IC50, 32 h, Mean): 4.73% | %Heme ([3]; 2.5x IC50, 32 h, Mean): 10.26% | %Hemozoin ([3]; 2.5x IC50, 32 h, Mean): 85.01% | Hb Fe (fg/troph) ([3]; 2.5x IC50, 32 h, Mean): 2.72 fg/troph | Heme Fe (fg/troph) ([3]; 2.5x IC50, 32 h, Mean): 5.95 fg/troph | Hemozoin Fe (fg/troph) ([3]; 2.5x IC50, 32 h, Mean): 47.56 fg/troph | Total Fe (fg/troph) ([3]; 2.5x IC50, 32 h, Mean): 56.58 fg/troph | %Hb [3, 9]: 4.8862% and 4.8721% and 4.7430% and 4.4317% | %Heme [3, 9]: 10.8743% and 11.0956% | %Hemozoin [3, 9]: 84.2395% and 85.3413% and 84.1614% and 86.2810% | Hb Fe (fg/troph) [3, 9]: 2.8007 fg/troph and 2.7933 fg/troph and 2.5619 fg/troph and 2.5547 fg/troph | Heme Fe (fg/troph) [3, 9]: 6.2331 fg/troph and 5.6110 fg/troph and 5.9933 fg/troph and 5.3538 fg/troph | Hemozoin Fe (fg/troph) [3, 9]: 48.2856 fg/troph and 48.9290 fg/troph and 45.4601 fg/troph and 49.7378 fg/troph | Total Fe (fg/troph) [3, 9]: 57.32 fg/troph and 57.33 fg/troph and 54.02 fg/troph and 57.65 fg/troph | %Hb ([3]; 3x IC50, 32 h, Mean): 3.75% | %Heme ([3]; 3x IC50, 32 h, Mean): 14.98% | %Hemozoin ([3]; 3x IC50, 32 h, Mean): 81.27% | Hb Fe (fg/troph) ([3]; 3x IC50, 32 h, Mean): 2.01 fg/troph | Heme Fe (fg/troph) ([3]; 3x IC50, 32 h, Mean): 8.01 fg/troph | Hemozoin Fe (fg/troph) ([3]; 3x IC50, 32 h, Mean): 43.26 fg/troph | Total Fe (fg/troph) ([3]; 3x IC50, 32 h, Mean): 56.94 fg/troph | %Hb [3, 10]: 2.5119% and 4.3346% and 4.4230% and 3.7332% | %Heme [3, 10]: 15.7024% and 13.7857% and 15.6412% and 14.7736% | %Hemozoin [3, 10]: 81.7857% and 81.8796% and 79.9358% and 81.4933% | Hb Fe (fg/troph) [3, 10]: 1.3141 fg/troph and 2.3188 fg/troph and 2.3892 fg/troph and 2.5358 fg/troph | Heme Fe (fg/troph) [3, 10]: 8.2149 fg/troph and 7.3747 fg/troph and 8.4490 fg/troph and 10.0350 fg/troph | Hemozoin Fe (fg/troph) [3, 10]: 42.7874 fg/troph and 43.8015 fg/troph and 43.1792 fg/troph and 55.3544 fg/troph | Total Fe (fg/troph) [3, 10]: 52.32 fg/troph and 53.50 fg/troph and 54.02 fg/troph and 67.93 fg/troph
